Where two headings read alike, the source gives them in different places.

Test [1] deals with RON (human) (Homo sapiens, UniProt Q04912). Nature of the test: RON (human) AlphaScreen kinase assay, Km of ATP. Format: biochemical. Summed up: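 Reaction was started with enzyme and run 30 min at RT. PT66 donor/acceptor beads in an EDTA-containing Tris pH 7.5 buffer were then added, and the signal was read after 1 h.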
On the technique in general: Alpha assays give light when donor and acceptor beads are brought close together.

For test [2], the target named is MET (human) (Homo sapiens, UniProt P08581). Nature of the test: MET (human) AlphaScreen kinase assay, Km of ATP. Type of test: biochemical. Summed up:
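Human MET at lot-optimised concentration in 50 mM Tris pH 7.4 buffer with 1 mM DTT, compound at 1% DMSO final; enzyme starts the reaction, 60 min at RT.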

[3] abbreviates: AlphaScreen, Km of ATP, read-out: RON biochemical IC50.
The mark [4] stands for this setting: AlphaScreen, Km of ATP, read-out: Met biochemical IC50.

Chain of RON (human) (Q04912 25-1400): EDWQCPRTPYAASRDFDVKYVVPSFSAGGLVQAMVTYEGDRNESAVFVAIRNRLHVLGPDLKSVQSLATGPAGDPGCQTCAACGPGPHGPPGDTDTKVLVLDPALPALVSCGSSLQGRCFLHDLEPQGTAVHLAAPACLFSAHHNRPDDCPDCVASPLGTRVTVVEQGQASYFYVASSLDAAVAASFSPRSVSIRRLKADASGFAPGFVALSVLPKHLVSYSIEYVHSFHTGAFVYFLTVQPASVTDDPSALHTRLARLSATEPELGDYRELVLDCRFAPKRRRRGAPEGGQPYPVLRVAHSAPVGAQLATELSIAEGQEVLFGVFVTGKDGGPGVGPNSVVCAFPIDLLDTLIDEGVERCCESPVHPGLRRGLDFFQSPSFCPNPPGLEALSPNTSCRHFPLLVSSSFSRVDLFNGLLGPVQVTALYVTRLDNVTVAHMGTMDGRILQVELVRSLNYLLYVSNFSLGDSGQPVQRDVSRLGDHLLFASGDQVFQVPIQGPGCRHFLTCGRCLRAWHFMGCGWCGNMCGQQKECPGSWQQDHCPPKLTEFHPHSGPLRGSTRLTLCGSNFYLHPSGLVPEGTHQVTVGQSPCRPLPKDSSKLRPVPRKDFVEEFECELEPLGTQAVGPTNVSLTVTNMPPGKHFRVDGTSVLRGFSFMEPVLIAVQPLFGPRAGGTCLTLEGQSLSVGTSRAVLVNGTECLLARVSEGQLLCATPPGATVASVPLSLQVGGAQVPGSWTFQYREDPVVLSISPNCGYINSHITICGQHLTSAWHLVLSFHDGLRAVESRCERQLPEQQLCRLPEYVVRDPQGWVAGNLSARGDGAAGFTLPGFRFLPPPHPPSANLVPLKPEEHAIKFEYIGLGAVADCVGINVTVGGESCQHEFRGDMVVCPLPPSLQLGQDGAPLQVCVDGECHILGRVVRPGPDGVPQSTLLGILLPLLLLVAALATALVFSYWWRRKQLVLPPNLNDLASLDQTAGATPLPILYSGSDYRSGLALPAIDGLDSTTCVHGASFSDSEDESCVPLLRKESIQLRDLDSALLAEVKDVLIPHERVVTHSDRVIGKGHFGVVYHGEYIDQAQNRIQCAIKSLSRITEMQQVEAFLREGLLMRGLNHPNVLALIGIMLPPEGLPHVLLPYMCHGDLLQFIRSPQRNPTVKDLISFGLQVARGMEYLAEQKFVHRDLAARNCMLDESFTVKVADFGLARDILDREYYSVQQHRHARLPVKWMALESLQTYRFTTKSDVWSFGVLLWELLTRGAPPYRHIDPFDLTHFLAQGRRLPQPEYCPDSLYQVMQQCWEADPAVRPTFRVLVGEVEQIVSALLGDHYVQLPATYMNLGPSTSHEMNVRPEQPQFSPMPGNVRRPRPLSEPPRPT
Chain of MET (human) (P08581 25-1390): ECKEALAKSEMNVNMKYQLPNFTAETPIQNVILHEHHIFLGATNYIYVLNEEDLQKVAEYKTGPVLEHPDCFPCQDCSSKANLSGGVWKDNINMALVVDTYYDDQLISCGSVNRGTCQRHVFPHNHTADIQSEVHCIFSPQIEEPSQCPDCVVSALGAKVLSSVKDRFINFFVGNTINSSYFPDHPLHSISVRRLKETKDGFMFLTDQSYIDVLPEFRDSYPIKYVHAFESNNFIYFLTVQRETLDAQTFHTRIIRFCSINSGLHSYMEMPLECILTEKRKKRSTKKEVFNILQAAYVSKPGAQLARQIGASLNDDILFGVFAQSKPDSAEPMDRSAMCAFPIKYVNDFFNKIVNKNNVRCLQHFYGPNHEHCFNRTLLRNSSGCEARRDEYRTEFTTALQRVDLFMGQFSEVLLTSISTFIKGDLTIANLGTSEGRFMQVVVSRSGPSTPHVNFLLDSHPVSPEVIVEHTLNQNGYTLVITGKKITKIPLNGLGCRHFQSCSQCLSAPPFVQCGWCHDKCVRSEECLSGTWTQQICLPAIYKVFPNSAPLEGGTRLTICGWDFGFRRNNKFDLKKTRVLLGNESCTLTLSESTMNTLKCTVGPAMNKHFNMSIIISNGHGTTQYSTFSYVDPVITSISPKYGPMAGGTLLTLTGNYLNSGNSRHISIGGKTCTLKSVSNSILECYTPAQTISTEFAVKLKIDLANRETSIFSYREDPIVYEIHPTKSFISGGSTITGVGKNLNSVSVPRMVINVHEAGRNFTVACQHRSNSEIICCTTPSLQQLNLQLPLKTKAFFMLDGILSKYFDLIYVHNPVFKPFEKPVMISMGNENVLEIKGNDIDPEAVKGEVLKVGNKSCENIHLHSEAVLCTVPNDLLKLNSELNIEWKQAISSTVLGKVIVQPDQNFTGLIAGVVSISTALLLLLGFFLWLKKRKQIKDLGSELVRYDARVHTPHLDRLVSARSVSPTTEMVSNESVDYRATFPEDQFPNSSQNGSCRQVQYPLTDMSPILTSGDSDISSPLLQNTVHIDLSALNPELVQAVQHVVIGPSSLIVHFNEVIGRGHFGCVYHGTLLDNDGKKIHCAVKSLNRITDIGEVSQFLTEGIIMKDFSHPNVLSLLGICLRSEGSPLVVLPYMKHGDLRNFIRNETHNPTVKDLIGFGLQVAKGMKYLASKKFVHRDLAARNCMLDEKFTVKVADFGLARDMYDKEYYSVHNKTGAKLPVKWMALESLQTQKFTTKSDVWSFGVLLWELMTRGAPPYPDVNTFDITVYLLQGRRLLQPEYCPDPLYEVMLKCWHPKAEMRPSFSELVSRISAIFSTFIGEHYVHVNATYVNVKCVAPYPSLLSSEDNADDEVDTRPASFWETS

For orientation: IC50 means the midpoint of a concentration-inhibition curve. Consider `C[C@@H](Oc1c(N)ncc2c(-c3csc(CN4CCCC4)c3)coc12)c1c(Cl)ccc(F)c1Cl` [Example 308, 7-[(R)-1-(2,6-Dichloro-3-fluorophenyl)ethoxy]-3-(5-pyrrolidin-1-ylmethylthiophen-3-yl)furo[3,2-c]pyridin-6-ylamine], for which the IC50 in test [1] (setting [3]) and in test [2] (setting [4]) was below 500 nM in each case.
As for `C[C@@H](Oc1c(N)ncc2c(C3=CCCC(N)C3)coc12)c1c(Cl)ccc(F)c1Cl` (stereo partly drawn) [Example 145, 3-(5-Aminocyclohex-1-enyl)-7-[(R)-1-(2,6-dichloro-3-fluoro-phenyl)ethoxy]furo[3,2-c]pyridin-6-ylamine], the values for the concentration for half-maximal inhibition (IC50) in test [1] (setting [3]) and in test [2] (setting [4]) were below 500 nM and 500 to 5000 nM, respectively.
The corresponding values for `C[C@H](Oc1c(N)ncc2c(C3=CCN(C(N)=O)CC3)coc12)c1c(Cl)ccc(F)c1Cl` [Example 456, 4-{6-Amino-7-[(S)-1-(2,6-dichloro-3-fluorophenyl)ethoxy]furo[3,2-c]pyridin-3-yl}-3,6-dihydro-2H-pyridine-1-carboxamide] are 500 to 5000 nM and below 500 nM.
The corresponding values for `CC(Oc1c(N)ncc2c(-c3cnn(C4CCNCC4)c3)coc12)c1nc2ccccc2s1` (centres unmarked) [Example 404, 7-(1-Benzothiazol-2-ylethoxy)-3-(1-piperidin-4-yl-1H-pyrazol-4-yl)furo[3,2-c]pyridin-6-ylamine] are 500 to 5000 nM and 500 to 5000 nM.
In the case of `C[C@@H](Oc1c(N)ncc2c(-c3cnn(C4CCNCC4)c3)coc12)c1nnc2ccc(-c3cnn(C)c3)nn12` [Example 469, 7-{(1R)-1-[6-(1-methyl-1H-pyrazol-4-yl) [1,2,4]triazolo[4,3-b]pyridazin-3-yl]ethoxy}-3-[1-(piperidin-4-yl)-1H-pyrazol-4-yl]furo[3,2-c]pyridin-6-amine], the half-maximal inhibitory concentration (IC50) in test [1] (setting [3]) was 5000 to 20000 nM; in test [2] (setting [4]), below 500 nM.
Consider `CC(Oc1c(N)ncc2c(-c3cnn(C4CCNCC4)c3)coc12)c1cccc(C(N)=O)c1` (centres unmarked) [Example 411, 3-{1-[6-Amino-3-(1-piperidin-4-yl-1H-pyrazol-4-yl)furo[3,2-c]pyridin-7-yloxy]ethyl}benzamide], for which the half-inhibitory concentration (IC50) in test [1] (setting [3]) and in test [2] (setting [4]) was 500 to 5000 nM in each case.
With `Nc1ncc2c(-c3cnn(C4CCNCC4)c3)coc2c1O[C@H]1CCC[C@H]1c1cccc(F)c1` [Example 408], the concentration for half-maximal inhibition (IC50) in test [1] (setting [3]) and in test [2] (setting [4]) was 500 to 5000 nM throughout.
Regarding `CC(Oc1c(N)ncc2c(-c3cnn(C4CCNCC4)c3)coc12)c1ccc(Cl)cc1Cl` (centres unmarked) [Example 382, 7-[1-(2,4-Dichlorophenyl)ethoxy]-3-(1-piperidin-4-yl-1H-pyrazol-4-yl)furo[3,2-c]pyridin-6-ylamine], the IC50 in test [1] (setting [3]) is 500 to 5000 nM; in test [2] (setting [4]) it was below 500 nM.
The corresponding values for `C[C@@H](Oc1c(N)ncc2c(C3=CCN(C(=O)N4CCOCC4)CC3)coc12)c1c(Cl)ccc(F)c1Cl` [Example 31, (4-{6-Amino-7-[(R)-1-(2,6-dichloro-3-fluorophenyl)-ethoxy]-furo[3,2-c]pyridin-3-yl}-3,6-dihydro-2H-pyridin-1-yl)-morpholin-4-ylmethanone] are 500 to 5000 nM and 500 to 5000 nM.
Take `C[C@@H](Oc1c(N)ncc2c(C3=CCN(C(=O)[C@H](O)c4ccccc4)CC3)coc12)c1c(Cl)ccc(F)c1Cl` [Example 266, (2R)-1-[4-{6-Amino-7-[(1R)-1-(2,6-dichloro-3-fluorophenyl)ethoxy]furo[3,2-c]pyridin-3-yl}-3,6-dihydropyridin-1(2H)-yl]-2-hydroxy-2-phenylethanone]: the half-inhibitory concentration (IC50) in test [1] (setting [3]) and in test [2] (setting [4]) was 500 to 5000 nM each time.
For `CC(Oc1c(N)ncc2c(-c3cnn(C4CCNCC4)c3)coc12)c1c(Cl)c(F)cc(OC2CNC2)c1Cl` (centres unmarked) [Example 159, 7-{1-[3-(Azetidin-3-yloxy)-2,6-dichloro-5-fluorophenyl]ethoxy}-3-[1-(piperidin-4-yl)-1H-pyrazol-4-yl]furo[3,2-c]pyridin-6-amine], the IC50 in test [1] (setting [3]) and in test [2] (setting [4]) was below 500 nM throughout.
Consider `C[C@@H](Oc1c(N)ncc2c(-c3ccc(CN4CCOCC4)s3)coc12)c1c(Cl)ccc(F)c1Cl` [Example 291], for which the 50% inhibitory concentration (IC50) in test [1] (setting [3]) and in test [2] (setting [4]) was 500 to 5000 nM in each case.
In the case of `CC(Oc1c(N)ncc2c(-c3cnn(C4CCNCC4)c3)coc12)c1ccccc1OC(F)(F)F` (centres unmarked) [Example 354, 3-(1-Piperidin-4-yl-1H-pyrazol-4-yl)-7-[1-(2-trifluoromethoxy-phenyl)ethoxy]furo[3,2-c]pyridin-6-ylamine], the IC50 in test [1] (setting [3]) and in test [2] (setting [4]) was 500 to 5000 nM throughout.
On to `C[C@@H](Oc1c(N)ncc2c(C3=CCN(C(=O)C4CCCCC4)CC3)coc12)c1c(Cl)ccc(F)c1Cl` [Example 16, (4-{6-Amino-7-[(R)-1-(2,6-dichloro-3-fluorophenyl)-ethoxy]-furo[3,2-c]pyridin-3-yl}-3,6-dihydro-2H-pyridin-1-yl)-cyclohexylmethanone], for which the IC50 in test [1] (setting [3]) and in test [2] (setting [4]) was 500 to 5000 nM each time.
Take `CCS(=O)(=O)N1CC=C(c2coc3c(O[C@H](C)c4c(Cl)ccc(F)c4Cl)c(N)ncc23)CC1` [Example 47, 7-[(R)-1-(2,6-Dichloro-3-fluorophenyl)-ethoxy]-3-(1-ethanesulfonyl-1,2,3,6-tetrahydropyridin-4-yl)-furo[3,2-c]pyridin-6-ylamine]: the IC50 in test [1] (setting [3]) and in test [2] (setting [4]) was 500 to 5000 nM in each case.
On to `C[C@@H]1CN(Cc2cc(-c3coc4c(O[C@H](C)c5c(Cl)ccc(F)c5Cl)c(N)ncc34)cs2)C[C@H](C)N1` [Example 305, 7-[(R)-1-(2,6-Dichloro-3-fluorophenyl)ethoxy]-3-[5-(cis-3,5-dimethylpiperazin-1-ylmethyl)thiophen-3-yl]-furo[3,2-c]pyridin-6-ylamine], for which the IC50 in test [1] (setting [3]) and in test [2] (setting [4]) was below 500 nM in each case.
Regarding `C[C@@H](Oc1c(N)ncc2c(-c3ccc(CN4CCC(O)CC4)s3)coc12)c1c(Cl)ccc(F)c1Cl` [Example 216, 1-(5-{6-Amino-7-[(R)-1-(2,6-dichloro-3-fluorophenyl)ethoxy]-furo[3,2-c]pyridin-3-yl}-thiophen-2-ylmethyl)piperidin-4-ol], the IC50 in test [1] (setting [3]) and in test [2] (setting [4]) was below 500 nM throughout.
For `C[C@@H](Oc1c(N)ncc2c(-c3cnc(N4CCN(C)CC4)nc3)coc12)c1c(Cl)ccc(F)c1Cl` [Example 123, 7-[(R)-1-(2,6-Dichloro-3-fluorophenyl)ethoxy]-3-[2-(4-methylpiperazin-1-yl)pyrimidin-5-yl]furo[3,2-c]pyridin-6-ylamine], the IC50 in test [1] (setting [3]) and in test [2] (setting [4]) was 500 to 5000 nM throughout.
As for `COc1cc(OC)cc(-c2coc3c(O[C@H](C)c4c(Cl)ccc(F)c4Cl)c(N)ncc23)c1` [Example 81, 7-[(R)-1-(2,6-Dichloro-3-fluorophenyl)ethoxy]-3-(3,5-dimethoxyphenyl)furo[3,2-c]pyridin-6-ylamine], the IC50 in test [1] (setting [3]) and in test [2] (setting [4]) was 500 to 5000 nM in each case.
On to `C[C@@H](Oc1c(N)ncc2c(-c3cnc(N)nc3)coc12)c1c(Cl)ccc(F)c1Cl` [Example 113, 3-(2-Amino-pyrimidin-5-yl)-7-[(R)-1-(2,6-dichloro-3-fluorophenyl)ethoxy]furo[3,2-c]pyridin-6-ylamine], for which the 50% inhibitory concentration (IC50) in test [1] (setting [3]) and in test [2] (setting [4]) was 500 to 5000 nM throughout.
For `C[C@@H](Oc1c(N)ncc2c(C3=CCN(C(=O)[C@H](N)c4ccccc4)CC3)coc12)c1c(Cl)ccc(F)c1Cl` [Example 262, (2R)-2-Amino-1-[4-{6-amino-7-[(1R)-1-(2,6-dichloro-3-fluoro-phenyl)ethoxy]furo[3,2-c]pyridin-3-yl}-3,6-dihydropyridin-1(2H)-yl]-2-phenylethanone], the IC50 in test [1] (setting [3]) and in test [2] (setting [4]) was below 500 nM each time.
On to `C[C@@H](Oc1c(N)ncc2c(-c3ccc(C(=O)N4CCC(=O)CC4)cc3)coc12)c1c(Cl)ccc(F)c1Cl` [Example 284, 1-(4-{6-Amino-7-[(R)-1-(2,6-dichloro-3-fluorophenyl)-ethoxy]furo[3,2-c]pyridin-3-yl}benzoyl)piperidin-4-one], for which the IC50 in test [1] and in test [2] was 500 to 5000 nM throughout.
Consider `CC(Cc1ccccc1)Oc1c(N)ncc2c(-c3cnn(C4CCNCC4)c3)coc12` (centres unmarked) [Example 405, 7-(1-Methyl-2-phenylethoxy)-3-(1-piperidin-4-yl-1H-pyrazol-4-yl)furo[3,2-c]pyridin-6-ylamine], for which the concentration for half-maximal inhibition (IC50) in test [1] (setting [3]) and in test [2] (setting [4]) was below 500 nM throughout.
For `Nc1ncc2c(-c3cnn(C4CCNCC4)c3)coc2c1O[C@H]1CCCC[C@H]1c1ccccc1` [Example 409], the IC50 in test [1] (setting [3]) and in test [2] (setting [4]) was 500 to 5000 nM in each case.
Turning to `CCNC(=O)c1coc2c(O[C@H](C)c3c(Cl)ccc(F)c3Cl)c(N)ncc12` [Example 179, 6-Amino-7-[(R)-1-(2,6-dichloro-3-fluorophenyl)ethoxy]furo[3,2-c]pyridine-3-carboxylic acid ethylamide], the figures for the concentration for half-maximal inhibition (IC50) in test [1] (setting [3]) and in test [2] (setting [4]) were 5000 to 20000 nM and below 500 nM, respectively.
Taken in the same sequence, the figures for `CC(Oc1c(N)ncc2c(-c3cnn(C4CCNCC4)c3)coc12)c1cccc(Br)c1` (centres unmarked) [Example 387, 7-[1-(3-Bromophenyl)ethoxy]-3-(1-piperidin-4-yl-1H-pyrazol-4-yl)furo[3,2-c]pyridin-6-ylamine] were 500 to 5000 nM and below 500 nM.
The corresponding values for `C[C@@H](Oc1c(N)ncc2c(-c3ccc(N4CCN(C)CC4)nc3)coc12)c1c(Cl)ccc(F)c1Cl` [Example 88, 7-[(R)-1-(2,6-Dichloro-3-fluorophenyl)ethoxy]-3-[6-(4-methylpiperazin-1-yl)pyridin-3-yl]furo[3,2-c]pyridin-6-ylamine] are below 500 nM and below 500 nM.
Taken in the same sequence, the figures for `CC(C)[C@@H](O)C(=O)N1CC=C(c2coc3c(O[C@H](C)c4c(Cl)ccc(F)c4Cl)c(N)ncc23)CC1` [Example 268, (2R)-1-[4-{6-Amino-7-[(1R)-1-(2,6-dichloro-3-fluorophenyl)ethoxy]furo[3,2-c]pyridin-3-yl}-3,6-dihydropyridin-1(2H)-yl]-2-hydroxy-3-methylbutan-1-one] were 500 to 5000 nM and 500 to 5000 nM.

The values above are taken from patent publication US8022206B2 (OSI Pharmaceuticals, LLC, priority 2008, dated 2011).
